Experimental data: the supplement of paper PMC10307832

How the values were obtained:
Experiment in all cases: relative viability (nuclei count vs DMSO), 5 days (fraction); higher = more cells survive
[1] = tested on: NCI-H1734
In short: (§1)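 Relative viability was taken as the ratio of nuclei in treated wells to nuclei in vehicle wells. Lung cancer cell lines in 1536-well plates received compounds by pin tool one day after seeding, either one drug alone or a fixed anchor-drug dose plus five library-drug doses (not always all listed) in √10 steps. Nuclei were counted on 4× images after 5 days of treatment, and values are medians of duplicate plates.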

[2] = tested on: NCI-H2405
In short: as §1

[3] = tested on: NCI-H322M
In short: as §1

[4] = tested on: H3255
In short: as §1

[5] = tested on: NCI-H2170
In short: as §1

[6] = tested on: UMC-11
In short: as §1

[7] = tested on: SW 900
In short: as §1

[8] = tested on: NCI-H1793
In short: as §1

[9] = tested on: PC-14
In short: as §1

[10] = tested on: NCI-H647
In short: as §1

[11] = tested on: NCI-H1563
In short: as §1

[12] = tested on: NCI-H2023
In short: as §1

[13] = tested on: COR-L23
In short: as §1

[14] = tested on: NCI-H441
In short: as §1

[15] = tested on: HCC-15
In short: as §1

[16] = tested on: LOU-NH91
In short: as §1

[17] = tested on: 201T
In short: as §1

[18] = tested on: NCI-H1650
In short: as §1

[19] = tested on: NCI-H3122
In short: as §1

[20] = tested on: NCI-H520
In short: as §1

[21] = tested on: NCI-H2347
In short: as §1

[22] = tested on: EPLC-272H
In short: as §1

CCN(CC)CCCCNc1ncc2cc(-c3cc(OC)cc(OC)c3)c(NC(=O)NC(C)(C)C)nc2n1 + COc1cccc2cc(-c3nc([C@H]4CC[C@H](C(=O)O)CC4)n4ncnc(N)c34)[nH]c12 [OSI-027] (partner 0.5 µM)
relative viability ([1]; first compound 0.01 µM): 0.647
relative viability ([1]; first compound 0.03162 µM): 0.61
relative viability ([1]; first compound 0.1 µM): 0.634
relative viability ([1]; first compound 0.3162 µM): 0.666
relative viability ([1]; first compound 1 µM): 0.526
relative viability ([2]; first compound 0.01 µM): 0.647
relative viability ([2]; first compound 0.03162 µM): 0.659
relative viability ([2]; first compound 0.1 µM): 0.585
relative viability ([2]; first compound 0.3162 µM): 0.602
relative viability ([2]; first compound 1 µM): 0.691
relative viability ([3]; first compound 0.01 µM): 0.481
relative viability ([3]; first compound 0.03162 µM): 0.525
relative viability ([3]; first compound 0.1 µM): 0.531
relative viability ([3]; first compound 0.3162 µM): 0.594
relative viability ([3]; first compound 1 µM): 0.552
relative viability ([4]; first compound 0.01 µM): 0.524
relative viability ([4]; first compound 0.03162 µM): 0.547
relative viability ([4]; first compound 0.1 µM): 0.698
relative viability ([4]; first compound 0.3162 µM): 0.448
relative viability ([4]; first compound 1 µM): 0.538
relative viability ([5]; first compound 0.01 µM): 0.768
relative viability ([5]; first compound 0.03162 µM): 0.67
relative viability ([5]; first compound 0.1 µM): 0.71
relative viability ([5]; first compound 0.3162 µM): 0.79
relative viability ([5]; first compound 1 µM): 0.75
relative viability ([6]; first compound 0.01 µM): 0.508
relative viability ([6]; first compound 0.03162 µM): 0.473
relative viability ([6]; first compound 0.1 µM): 0.481
relative viability ([6]; first compound 0.3162 µM): 0.485
relative viability ([6]; first compound 1 µM): 0.443
relative viability ([7]; first compound 0.01 µM): 0.657
relative viability ([7]; first compound 0.03162 µM): 0.592
relative viability ([7]; first compound 0.3162 µM): 0.634
relative viability ([7]; first compound 1 µM): 0.402
relative viability ([8]; first compound 0.01 µM): 0.238
relative viability ([8]; first compound 0.03162 µM): 0.253
relative viability ([8]; first compound 0.1 µM): 0.318
relative viability ([8]; first compound 0.3162 µM): 0.307
relative viability ([8]; first compound 1 µM): 0.206
relative viability ([9]; first compound 0.01 µM): 0.838
relative viability ([9]; first compound 0.03162 µM): 1.04
relative viability ([9]; first compound 0.1 µM): 1.12
relative viability ([9]; first compound 0.3162 µM): 0.974
relative viability ([9]; first compound 1 µM): 0.91
relative viability ([10]; first compound 0.01 µM): 0.539
relative viability ([10]; first compound 0.03162 µM): 0.8
relative viability ([10]; first compound 0.1 µM): 0.848
relative viability ([10]; first compound 0.3162 µM): 0.861
relative viability ([10]; first compound 1 µM): 0.56
relative viability ([11]; first compound 0.01 µM): 0.766
relative viability ([11]; first compound 0.03162 µM): 0.723
relative viability ([11]; first compound 0.1 µM): 0.835
relative viability ([11]; first compound 0.3162 µM): 0.768
relative viability ([11]; first compound 1 µM): 0.584
relative viability ([12]; first compound 0.01 µM): 0.426
relative viability ([12]; first compound 0.03162 µM): 0.452
relative viability ([12]; first compound 0.1 µM): 0.518
relative viability ([12]; first compound 0.3162 µM): 0.486
relative viability ([12]; first compound 1 µM): 0.359
relative viability ([13]; first compound 0.01 µM): 1.19
relative viability ([13]; first compound 0.03162 µM): 0.873
relative viability ([13]; first compound 0.1 µM): 1.06
relative viability ([13]; first compound 0.3162 µM): 1.07
relative viability ([13]; first compound 1 µM): 0.503
relative viability ([14]; first compound 0.01 µM): 0.56
relative viability ([14]; first compound 0.03162 µM): 0.669
relative viability ([14]; first compound 0.1 µM): 0.638
relative viability ([14]; first compound 0.3162 µM): 0.689
relative viability ([14]; first compound 1 µM): 0.623
relative viability ([15]; first compound 0.01 µM): 0.662
relative viability ([15]; first compound 0.03162 µM): 0.673
relative viability ([15]; first compound 0.1 µM): 0.717
relative viability ([15]; first compound 0.3162 µM): 0.936
relative viability ([15]; first compound 1 µM): 0.577
relative viability ([16]; first compound 0.01 µM): 0.672
relative viability ([16]; first compound 0.03162 µM): 0.741
relative viability ([16]; first compound 0.1 µM): 0.776
relative viability ([16]; first compound 0.3162 µM): 0.776
relative viability ([16]; first compound 1 µM): 0.696
relative viability ([17]; first compound 0.01 µM): 0.615
relative viability ([17]; first compound 0.03162 µM): 0.658
relative viability ([17]; first compound 0.1 µM): 0.927
relative viability ([17]; first compound 0.3162 µM): 0.798
relative viability ([17]; first compound 1 µM): 0.607
relative viability ([18]; first compound 0.01 µM): 0.7
relative viability ([18]; first compound 0.03162 µM): 0.702
relative viability ([18]; first compound 0.1 µM): 0.649
relative viability ([18]; first compound 0.3162 µM): 0.624
relative viability ([18]; first compound 1 µM): 0.4
relative viability ([19]; first compound 0.01 µM): 1.06
relative viability ([19]; first compound 0.03162 µM): 1.02
relative viability ([19]; first compound 0.1 µM): 1.15
relative viability ([19]; first compound 0.3162 µM): 1.3
relative viability ([19]; first compound 1 µM): 0.922
relative viability ([20]; first compound 0.01 µM): 0.251
relative viability ([20]; first compound 0.03162 µM): 0.228
relative viability ([20]; first compound 0.1 µM): 0.259
relative viability ([20]; first compound 0.3162 µM): 0.192
relative viability ([20]; first compound 1 µM): 0.155
relative viability ([21]; first compound 0.01 µM): 0.419
relative viability ([21]; first compound 0.03162 µM): 0.38
relative viability ([21]; first compound 0.1 µM): 0.408
relative viability ([21]; first compound 0.3162 µM): 0.381
relative viability ([21]; first compound 1 µM): 0.358
relative viability ([22]; first compound 0.01 µM): 0.272
relative viability ([22]; first compound 0.03162 µM): 0.281
relative viability ([22]; first compound 0.1 µM): 0.234
relative viability ([22]; first compound 0.3162 µM): 0.28
relative viability ([22]; first compound 1 µM): 0.301
